Legend:
lymphocyte count = experiment: Lymphocyte counts following inhibitor treatment (lymphocytosis); assay type: in vivo, rat; details: 30 mg/kg s.c., single dose
Protocol: Female Lewis rats were injected with a single dose of either compound H (1 mg/kg, s.c in PBS), or compound R (30 mg/kg, s.c., in TRIS/lactose) or with their respective vehicles at time 0. At each timepoint, 0.3 mL blood from triplicate animals was drawn from the jugular vein without anesthesia and collected into Capiject purple-top microtainer tubes containing EDTA (Terumo Medical Corporation #T-MQK). […] samples were analyzed for lymphocyte count using an Abbott CellDyn 3500 cell analyzer. Blood samples from the compound H-treated animals were drawn at 4 hours, 8 hours, 12 hours, and on days 1, 2, 3, 4, 5, 6, 7, 8, and 9 and for the compound R-treated animals after 2, 6, 24, and 48 h.
Administration of compounds R and H to rats produced an α4β1-integrin dependent lymphocytosis that was sustained as long as sufficient concentrations of the inhibitors were maintained in circulation. From previous studies >90% of α4β1 receptors are estimated to be occupied to maintain lymphocytosis and therefore a target concentration of greater than or equal to 10 ng/mL compound needs to be maintained (see Leone, D. R., et al. (2003) J. Pharmacol. Exp. Ther. 305:1150–1162). […] A 2–3 fold increase in lymphocyte levels was observed. […] Elevated lymphocyte levels were maintained for 6 days. By day 9 lymphocyte levels had returned to normal. […]

α4β7 = target: T1, α4β7 (Homo sapiens, UniProt P13612+P26010); experiment: Direct binding assay for α4β7 (VCAM-Ig, JY cells)
T1 construct: host or cells: JY human B-cell line
T1 sequence (P13612 34-1032): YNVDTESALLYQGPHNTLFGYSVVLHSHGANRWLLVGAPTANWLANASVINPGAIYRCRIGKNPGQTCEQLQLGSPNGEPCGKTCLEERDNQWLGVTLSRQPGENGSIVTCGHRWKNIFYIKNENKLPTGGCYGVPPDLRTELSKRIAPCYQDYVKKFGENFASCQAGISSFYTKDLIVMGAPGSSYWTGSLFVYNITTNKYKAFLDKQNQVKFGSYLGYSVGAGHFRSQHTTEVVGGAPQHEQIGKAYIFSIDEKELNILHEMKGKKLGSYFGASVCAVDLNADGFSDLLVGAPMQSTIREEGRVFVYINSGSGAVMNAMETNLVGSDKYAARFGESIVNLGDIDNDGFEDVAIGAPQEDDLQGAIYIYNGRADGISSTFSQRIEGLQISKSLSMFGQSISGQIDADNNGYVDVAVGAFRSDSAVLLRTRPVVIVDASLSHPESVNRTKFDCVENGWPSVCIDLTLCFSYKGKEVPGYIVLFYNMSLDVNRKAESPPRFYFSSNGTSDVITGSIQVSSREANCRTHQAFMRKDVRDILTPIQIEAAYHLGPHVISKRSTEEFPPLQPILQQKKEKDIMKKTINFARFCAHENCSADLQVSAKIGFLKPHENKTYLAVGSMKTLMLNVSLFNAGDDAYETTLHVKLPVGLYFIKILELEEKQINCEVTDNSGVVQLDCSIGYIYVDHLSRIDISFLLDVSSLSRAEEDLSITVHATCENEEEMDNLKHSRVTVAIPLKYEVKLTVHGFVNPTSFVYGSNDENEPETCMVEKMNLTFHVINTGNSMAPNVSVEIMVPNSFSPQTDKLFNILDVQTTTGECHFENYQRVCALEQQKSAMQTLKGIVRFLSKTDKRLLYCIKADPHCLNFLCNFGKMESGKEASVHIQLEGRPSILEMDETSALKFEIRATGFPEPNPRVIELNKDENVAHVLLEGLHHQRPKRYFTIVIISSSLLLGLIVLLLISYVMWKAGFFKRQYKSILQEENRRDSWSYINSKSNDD
T1 sequence (P26010 20-798): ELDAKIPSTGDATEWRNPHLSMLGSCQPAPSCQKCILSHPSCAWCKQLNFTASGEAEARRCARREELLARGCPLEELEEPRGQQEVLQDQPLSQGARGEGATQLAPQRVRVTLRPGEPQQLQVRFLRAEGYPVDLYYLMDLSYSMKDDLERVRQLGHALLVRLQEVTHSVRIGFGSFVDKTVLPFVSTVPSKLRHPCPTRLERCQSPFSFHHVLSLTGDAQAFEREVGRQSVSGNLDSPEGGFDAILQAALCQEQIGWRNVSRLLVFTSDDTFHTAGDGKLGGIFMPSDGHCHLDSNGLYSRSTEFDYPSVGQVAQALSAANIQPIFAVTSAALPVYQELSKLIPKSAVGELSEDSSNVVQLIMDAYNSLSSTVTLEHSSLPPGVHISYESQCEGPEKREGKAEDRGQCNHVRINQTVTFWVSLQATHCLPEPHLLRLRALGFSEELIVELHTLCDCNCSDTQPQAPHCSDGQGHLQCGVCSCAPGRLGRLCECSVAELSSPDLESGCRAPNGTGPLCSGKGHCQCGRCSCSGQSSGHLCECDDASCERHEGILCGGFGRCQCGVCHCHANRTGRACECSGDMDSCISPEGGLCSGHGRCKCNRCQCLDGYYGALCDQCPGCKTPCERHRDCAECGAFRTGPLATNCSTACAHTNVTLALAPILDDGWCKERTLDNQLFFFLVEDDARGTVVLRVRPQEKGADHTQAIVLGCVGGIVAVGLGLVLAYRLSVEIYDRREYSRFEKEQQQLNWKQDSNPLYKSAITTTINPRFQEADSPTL
Protocol: The results presented in Table 3 summarize the integrin selectivity for PEGylated inhibitors. The selectivity of the PEGylated inhibitors for the four integrins indicated were tested in adhesion formats for α1β1 and α2β1, and by direct binding for α4β7. Serial dilutions of each compound were tested and IC50 values calculated from the concentration dependence of the inhibition curves. KD values derived from kinetic data are shown for binding to α4β1.

α4β1 = α4β1 (Homo sapiens, UniProt P05556+P13612); experiment: VCAM-Ig direct binding assay (DBA), Jurkat cells
Chain of α4β1 (P05556 21-798, one chain of several): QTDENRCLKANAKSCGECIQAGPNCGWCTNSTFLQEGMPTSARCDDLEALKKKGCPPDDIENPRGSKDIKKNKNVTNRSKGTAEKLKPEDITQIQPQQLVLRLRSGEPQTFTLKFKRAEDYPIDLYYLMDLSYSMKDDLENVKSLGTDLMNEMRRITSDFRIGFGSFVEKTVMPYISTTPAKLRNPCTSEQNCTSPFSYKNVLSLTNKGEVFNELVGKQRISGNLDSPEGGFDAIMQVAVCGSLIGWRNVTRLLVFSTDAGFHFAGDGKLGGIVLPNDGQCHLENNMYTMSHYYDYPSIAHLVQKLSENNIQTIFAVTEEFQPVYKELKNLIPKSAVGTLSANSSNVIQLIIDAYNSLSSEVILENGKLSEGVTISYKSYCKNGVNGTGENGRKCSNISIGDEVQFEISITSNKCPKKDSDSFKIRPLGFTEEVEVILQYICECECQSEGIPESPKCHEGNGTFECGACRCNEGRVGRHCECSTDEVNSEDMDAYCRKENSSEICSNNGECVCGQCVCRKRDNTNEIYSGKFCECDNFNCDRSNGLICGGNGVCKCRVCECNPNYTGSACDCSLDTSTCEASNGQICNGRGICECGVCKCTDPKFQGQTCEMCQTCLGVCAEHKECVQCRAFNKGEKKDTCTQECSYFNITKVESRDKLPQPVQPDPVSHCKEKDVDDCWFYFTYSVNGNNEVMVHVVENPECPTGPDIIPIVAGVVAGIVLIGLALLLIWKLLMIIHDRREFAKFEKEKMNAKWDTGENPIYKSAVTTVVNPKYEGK
Excerpt: A direct binding assay may also be employed to quantitate the inhibitory activity of the compounds. In this assay, a VCAM-IgG fusion protein containing the first two immunoglobulin domains of VCAM (D1D2) attached above the hinge region of an IgG1 molecule (“VCAM 2D-IgG”), is conjugated to a marker enzyme, such as alkaline phosphatase (“AP”). […] The conjugation of that fusion to a marker enzyme is achieved by cross-linking methods well-known in the art.
The VCAM-IgG enzyme conjugate is then placed in the wells of a multi-well filtration plate, such as that contained in the Millipore Multiscreen Assay System (Millipore Corp., Bedford, Mass.). Varying concentrations of the test inhibitory compound are then added to the wells followed by addition of VLA-4-expressing cells. The cells, compound and VCAM-IgG enzyme conjugate are mixed together and allowed to incubate at room temperature. Following incubation, the wells are vacuum drained, leaving behind the cells and any bound VCAM. Quantitation of bound VCAM is determined by adding an appropriate calorimetric substrate for the enzyme conjugated to VCAM-IgG and determining the amount of reaction product. Decreased reaction product indicates increased binding inhibitory activity.
Samples were also evaluated for function using the VCAM-Ig direct binding assay. Details for the construction of the VCAM-Ig animal cell expression vector, the generation of a Chinese hamster ovary (CHO) cell line expressing VCAM-Ig, conjugation of the VCAM-Ig to alkaline phosphatase, and the development of a direct binding assay for characterizing α4β1 and α4β7 binding to VCAM-Ig were as previously described (see Lobb, R. R., et al. (1995) Cell Adhes. Commun. 3:385–397).
For these studies, a series of compounds based on compound E containing 0.35, 2, 5, 20, 30, and 50 kDa-mPEG was synthesized and tested for binding to α4β1 on Jurkat cells with VCAM-Ig as a reporter (see methods).

Row | IC50 (α4β1; DBA IC50 100% rat plasma, 100% rat plasma) [nM] | IC50 (α4β1; DBA IC50 Ca2+Mg2+, Ca2+Mg2+) [nM] | IC50 (α4β1; DBA IC50 Mn2+, Mn2+) [nM] | IC50 (α4β7; direct binding) [nM] | Compound | day by which lymphocyte levels returned to normal (lymphocyte count) [days] | duration of lymphocytosis (lymphocyte count) | affinity higher for α4β1 than for α4β7 (α4β7; α4β1 versus α4β7)
1 | – | – | – | – | Cc1ccccc1NC(=O)Nc1ccc(CC(=O)N(C)[C@@H](CC(C)C)C(=O)NCC[C@H](NC(=O)[C@@H]2CCCN2S(=O)(=O)c2cc(Cl)cc(Cl)c2)C(=O)O)cc1 [Compound R, 2S-{[1-(3,5-dichloro-benzenesulfonyl)-pyrrolidine-2S-carbonyl]-amino}-4-[4-methyl-2S-(methyl-{2-[4-(3-o-tolyl-ureido)-phenyl]-acetyl}-amino)-pentanoylamino]-butyric acid] | ≤ 2 | one | > 2,000 fold
2 | 13 | 2 | 1.2 | > 1000 | Cc1ccccc1NC(=O)Nc1ccc(CC(=O)N(C)[C@@H](CC(C)C)C(=O)NCC[C@H](NC(=O)C2CCCN2S(=O)(=O)c2ccccc2)C(=O)O)cc1 (stereo partly drawn) [Compound B, 2S-[(1-benzenesulfonyl-pyrrolidine-2S-carbonyl)-amino]-4-[4-methyl-2S-(methyl-{2-[4-(3-o-tolyl-ureido)-phenyl]-acetyl}-amino)-pentanoylamino]-butyric acid] | – | – | –
